The assay relates to CEM cells HIV-1 protection, formazan growth assay. In words: NCI AIDS Antiviral Assay. Particulars: for IC50: measured here: growth of uninfected CEM cells. The method in brief: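 Human CEM cells, uninfected and HIV-1-infected, exposed to five drug concentrations; growth measured by soluble formazan assay and scored as percent protection from infection, with protecting compounds retested.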

Active and inactive are the calls of the source.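 The calls were made as follows: active = compounds giving half or more protection of infected cells from virus-caused growth loss, again on retest; inactive = the rest.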 Where a SMILES comes first, the peptide text is derived from it. [ ]: non-standard residue; d: D form. The star is where a group is joined. Ac5c = NC1(C(=O)O)CCCC1; Cbz = O=C(OCc1ccccc1)*; Boc = CC(C)(C)OC(=O)*; tBu = CC(C)(C)*

The term EC50 denotes the concentration giving half of the maximal effect. Broadly, the IC50 is the concentration that gives 50% inhibition. As to `O=C1CCCC1(CCSc1ccccc1)C(CCCl)Sc1ccccc1` (stereo not drawn), the EC50 is greater than 8.91 µM and the IC50 was greater than 8.91 µM.
Regarding `C=C1CCC[C@@H]2[C@@](C)(Cc3cc(O)ccc3O)C(C)CC[C@]12C` (stereo partly drawn), the EC50 is greater than 60.3 µM and the half-maximal inhibitory concentration (IC50) came to 0.708 µM.
As to `CCN(CC)CC/C=C1\c2ccccc2Sc2ccc(Cl)cc21`, the result was inactive.
Regarding `COC(=O)C1(NC(=O)C(Cc2ccccc2)NC(=O)C(NC(=O)C(CCCCNC(=O)OC(C)(C)C)NC(=O)C(Cc2c[nH]c3ccccc23)NC(=O)C(Cc2ccccc2)NC(=O)OCc2ccccc2)C(C)OC(C)(C)C)CCCC1` (stereo not drawn) (Cbz-FWK(Boc)T(tBu)F[Ac5c]-OMe; configuration not given here), the EC50 is greater than 200 µM and the IC50 came out at 115 µM.
For the molecule `NC(CSSCC(N)C(=O)NCC(=O)O)C(=O)NCC(=O)O` (stereo not drawn), the EC50 is greater than 708 µM.
`Cc1cc(OC(=O)c2c(C)cc(OC(=O)c3c(C)cc(O)cc3O)cc2O)cc(O)c1C(=O)O`: the EC50 was greater than 77.6 µM and the IC50 is greater than 77.6 µM.
Regarding `COc1cc2ccc3c(c2cc1OC)CCc1cnoc1-3`, the EC50 was greater than 47.9 µM and the IC50 was greater than 47.9 µM.
Consider `Cc1cc(C2C(=O)c3ccccc3C2=O)cc(C)c1O`, for which the result was inactive.
Turning to `O=C1/C(=C/c2ccc(O)c(CN3CCCCC3)c2)CCC/C1=C\c1ccc(O)c(CN2CCCCC2)c1`, the result was inactive.
In the case of `O=C(/C=C(\Cl)c1c[nH]c(=O)[nH]c1=O)c1ccccc1`, the result was inactive.
In the case of `Cc1c(C(=O)CC(=O)C(=O)Nc2ccccc2C(F)(F)F)[n+](=O)c2ccccc2n1[O-]`, the EC50 was greater than 4.57 µM and the half-inhibitory concentration (IC50) was greater than 4.57 µM.
Take `N#Cc1c(C#N)c(-c2ccccc2)n(/N=C\c2ccccc2)c1N`: the EC50 was greater than 200 µM and the IC50 was determined as 14.5 µM.
In the case of `CN(C)c1ccc(/C=C2\C=Cc3ccccc32)c(F)c1`, the EC50 was greater than 14.1 µM and the IC50 was greater than 14.1 µM.
On to `CC(=O)Nc1ccc(/C=C2\SC(=S)N(/C=C(/C#N)S(=O)(=O)c3ccc(C)cc3)C2=O)cc1`, for which the EC50 was greater than 200 µM and the IC50 is 74.1 µM.
With `Cc1ccc(N2CN(c3ccc(C)cc3)CC(C)(N)C2)cc1`, the EC50 is greater than 200 µM and the IC50 worked out at 24 µM.
Taken in the same sequence, the figures for `C#Cc1cccc(NC(=O)/C=C\C(=O)O)c1` were greater than 832 µM and 537 µM.
Turning to `COc1cc2c(cc1OC)-c1c(cc(OC)c(OC)c1OC)C2=O`, the outcome was inactive.
Regarding `O=C1/C(=C\c2cccc(Oc3ccccc3)c2)S(=O)(=O)C(c2ccccc2)N1c1ccc(Cl)cc1` (stereo not drawn), the EC50 was greater than 20 µM.
As for `N#C/C(=C\c1ccc(Cl)cc1)C(=O)c1ccccc1`, the EC50 is greater than 83.2 µM and the IC50 was greater than 83.2 µM.
In the case of `C=C1C[C@H]2[C@@H]3C=C(C)C4=CC(=O)CC[C@]4(C)[C@H]3CC[C@]2(C)[C@@]1(OC(C)=O)C(C)=O`, the EC50 is greater than 200 µM and the IC50 was 28.2 µM.
Taken in the same sequence, the figures for `O=C(c1ccccc1)c1c2ccccn2c2cccc[n+]12` were greater than 200 µM and 53.7 µM.
The like results for `O=C(O)/C(=C(/c1ccccc1)c1ccc(Cl)cc1)c1ccccc1` were, in that order, greater than 107 µM and 89.1 µM.
The like results for `O=C1c2cc(Cl)ccc2-n2c(noc2=O)C2CSCN12` (stereo not drawn) were, in that order, greater than 200 µM and greater than 200 µM.
As for `COc1cc(Cc2c(OC)c(OC)cc(C)c2C(=O)O)cc(OC)c1`, the EC50 is greater than 145 µM and the IC50 was greater than 145 µM.
For `COC1=NC2=NCCN2C(OC)=N1`, the EC50 is greater than 200 µM and the IC50 is greater than 200 µM.
For the molecule `N/N=C1\CC(c2ccccc2)Oc2ccccc21` (stereo not drawn), the EC50 was greater than 200 µM and the IC50 stood at 182 µM.
The like results for `CC(C)(C)C1C=C(Sc2ccccc2)C(=O)O1` (stereo not drawn) were, in that order, greater than 120 µM and 21.4 µM.
The like results for `N#Cc1ccc(Oc2nc3ccccc3nc2C(=O)O)cc1` were, in that order, greater than 200 µM and greater than 200 µM.
Take `CC(=O)OCC1OC(Sc2nc(-c3ccc(Cl)cc3)c(C#N)c(=O)n2C2OC(COC(C)=O)C(OC(C)=O)C(OC(C)=O)C2OC(C)=O)C(OC(C)=O)C(OC(C)=O)C1OC(C)=O` (stereo not drawn): the EC50 is greater than 100 µM, the outcome was inactive and the IC50 turned out to be 18.6 µM.
With `[Cl-].[Rh+3].c1ccc(-c2ccnc3c2ccc2c(-c4ccccc4)ccnc23)cc1.c1ccc(-c2ccnc3c2ccc2c(-c4ccccc4)ccnc23)cc1.c1ccc(-c2ccnc3c2ccc2c(-c4ccccc4)ccnc23)cc1`, the EC50 was greater than 11 µM and the IC50 was 7.08 µM.
Take `C=CCCC(=O)CC(O)(C(F)(F)F)C(F)(F)F`: the result was inactive.
For `Cc1cccc(C2NC(=O)N3C(c4cccc(C)c4)NC(=O)N23)c1` (stereo not drawn), the EC50 is greater than 200 µM and the concentration for half-maximal inhibition (IC50) was 38 µM.
Regarding `COc1ccc(C2=C3c4cc(OC)c(OC)cc4CCN3C(=S)SS2)cc1OC`, the result was inactive.
In the case of `CCCCCCCCCCCCCCCCCC(=O)OCC(COC(=O)CCCN)OC(=O)CCCN` (stereo not drawn), the outcome was inactive.
On to `CCC(C)N1CN(c2ccccc2)C2(CCN(CCCSc3ccc(F)cc3)CC2)C1=O` (stereo not drawn), for which the EC50 was greater than 200 µM and the half-inhibitory concentration (IC50) was found to be 4.17 µM.
Take `O=C(O)[C@H](NS(=O)(=O)c1ccc([N+](=O)[O-])cc1)c1ccccc1`: the result was inactive.
With `Cc1ccc(N=NC2S/C(=C(\C#N)c3nc4ccccc4[nH]3)N(c3ccccc3)C2=O)cc1` (stereo not drawn), the EC50 is greater than 2.24 µM and the IC50 was greater than 2.24 µM.
For the molecule `O=C1OC2(CC1C1(O)C3CC4CC(C3)CC1C4)C1CC3CC(C1)CC2C3` (stereo not drawn), the EC50 was greater than 100 µM and the IC50 was 38.9 µM.
The like results for `CC12CCC3=C(CSC4=C3CSc3ccccc34)C1=CCCC2=O` (stereo not drawn) were, in that order, greater than 200 µM and greater than 200 µM.
Taken in the same sequence, the figures for `COC(=O)C1=C(c2ccccc2)C(O)(c2ccccc2)C(C(=O)OC)C1=O` (stereo not drawn) were greater than 339 µM and 209 µM.
Turning to `CC(C)COC(=O)NC1C(=O)N2C1SC(C)(C)C2C(=O)O` (stereo not drawn) (tested in a mixture with another compound), the EC50 is 87.1 µM and the IC50 is greater than 200 µM.
`O=C(O)c1cc2c3c(c1)[C@H]1C=CC[C@H]1CN3CC1CC=CC21` (stereo partly drawn): the outcome was inactive.
Take `Nc1ccc(C2=NC(C(=O)O)C=C2)cc1` (stereo not drawn): the EC50 was greater than 200 µM and the IC50 was greater than 200 µM.
Regarding `CCCCCCCCCCCCCCCC(=O)OCC1OC(CO)(OC2OC(CO)C(O)C(O)C2O)C(O)C1O` (stereo not drawn), the EC50 was greater than 200 µM and the IC50 was 64.6 µM.
Taken in the same sequence, the figures for `O=C/C(=C1/C=Cc2cc([N+](=O)[O-])ccc2S1)c1ccccc1` were greater than 200 µM and greater than 200 µM.
With `C=C(CS(=O)(=O)c1ccccc1)[P+](c1ccccc1)(c1ccccc1)c1ccccc1`, the outcome was inactive.
Turning to `O=C(c1cccc(C(=O)c2ccc3c4c(cccc24)C(=O)N(c2ccccc2)C3=O)c1)c1ccc2c3c(cccc13)C(=O)N(c1ccccc1)C2=O`, the EC50 was greater than 200 µM and the IC50 is greater than 200 µM.
As for `COc1ccc(N2C(=O)C3c4[nH]c5cc(Cl)ccc5c4C4CCC(C(C)(C)C)CC4C3C2=O)cc1` (stereo not drawn), the EC50 is greater than 200 µM and the 50% inhibitory concentration (IC50) amounted to 91.2 µM.
For the molecule `Cc1[nH]c(=O)[nH]c(=O)c1Cc1ccc(Cl)cc1`, the EC50 was greater than 200 µM and the IC50 is greater than 200 µM.
On to `CCOP(=O)(OCC)O/C(C)=C\C(=O)OC`, for which the EC50 is greater than 501 µM and the IC50 is greater than 501 µM.

These data come from PubChem BioAssay AID179 (DTP/NCI, 2004).
